Earlier results in patent US5220018A, “Cholecystokinin antagonists” (Merck & Co., Inc., priority 1992, dated 1993).
Non-standard residues stand in square brackets, D forms with d. Residues, ends and D or L forms follow the SMILES beside them. *: point of attachment. sY = N[C@@H](Cc1ccc(OS(=O)(=O)O)cc1)C(=O)O; Cbz = O=C(OCc1ccccc1)*

What was measured:
CCK receptor = details: literature; cited from earlier work
CCK-B receptors = details: literature, Bock et al. 1989; cited from earlier work
gastrin = details: in vitro, literature; cited from earlier work

SMILES | CCK receptor activity in words (CCK receptor) | other results
CCCC(=O)Nc1nc2c(ncn2[C@@H]2O[C@@H]3COP(=O)(O)O[C@H]3[C@H]2OC(=O)CCC)c(=O)[nH]1 [dibutyryl cyclic GMP] | the most potent | 
Cc1cccc(NC(=O)N[C@@H]2N=C(c3ccccc3)c3ccccc3N(C)C2=O)c1 [(R)-N-(2,3-dihydro-1-methyl-2-oxo-5-phenyl-1H-1,4-benzodiazepin-3-yl)-N^1-(3-methylphenyl) urea] |  | CCK-B receptor antagonism in words (CCK-B receptors): potent and selective antagonist of CCK-B receptors
CSCC[C@H](NC(=O)[C@H](Cc1ccc(OS(=O)(=O)O)cc1)NC(=O)OCc1ccccc1)C(=O)NCC(=O)N[C@@H](Cc1c[nH]c2ccccc12)C(=O)N[C@@H](CCSC)C(=O)N[C@@H](CC(=O)O)C(N)=O [Cbz-Tyr(SO3 H)-Met-Gly-Trp-Met-Asp-NH2] (Cbz-[sY]MGWMD-NH2) | partial agonist | 
CCCN(CCC)C(=O)C(CCC(=O)O)NC(=O)c1ccccc1 (stereo not shown) [proglumide] |  | gastrin antagonism in words (gastrin): very weak in vitro antagonists
